This is an account of results in US9206129B2, “Agent for treatment of eye diseases” (Daito Chemix Corporation, priority 2010, dated 2015).

One assay has as its target Mouse VCP (Mus musculus (Mouse), UniProt Q01853). Briefly: VCP ATPase inhibitory activity. Type of assay: biochemical. The settings on record: ATPase activity of purified VCP, 100 μM [γ-32P]ATP, 37° C., 10 minutes. The protocol: Mouse VCP cDNA (the amino acid sequence is completely identical among mouse, rat and human) is added with a DNA sequence corresponding to a histidine tag at the amino-terminal, subcloned into a baculovirus vector pVL1392 (BD Bioscience), and expressed in Sf-9 insect cells. The protein is purified with a nickel column. After the purification the concentration of the protein is adjusted to […] and the protein is stored in a solution containing 50 mM TrisCl pH 8.0, 5 mM EDTA, 10% glycerol, and 15 mM DTT at 4° C. […] The enzyme reaction is stopped with addition of 200 μL of an ice-cold solution containing 7% TCA and 1 mM K2HPO4. […] The reaction tube is centrifuged for 5 minutes at 20,000 g to separate the aqueous layer and the organic layer, 200 μL of the organic layer is taken, and the beta ray radiated from the liberated phosphate is quantified with liquid scintillation counter. By measuring the ATPase activity in the presence of the test substance at various concentrations, ATPase inhibitory activity of the test substance is measured. […]
The ATPase activity was determined as follows. […]
By measuring the ATPase activity in the presence of the test substance at various concentrations, ATPase inhibitory activity of the test substance was measured. […]

The next assay relates to DBA/2J mice. Briefly: Intraocular pressure in DBA/2J mice (TonoLab tonometer). Type of assay: in vivo, mouse. To be noted: 50 mg/kg/day orally. The protocol:
As a model of secondary angle-closure glaucoma, the DBA/2J mice (Anderson, M. G. et al; BMC Genetics (2001)) were employed. The mice were administered orally with 50 mg/kg/day of the compound of Synthetic Example 32 or 53 (Compound 32 or 53, respectively) daily after two months of age. The tomographs of retinae (n=22 to 32 eyes) were obtained in the 6, 7, 8, 9 and 10-month-old mice with the optical coherence tomography (OCT) (Multiline OCT, Heidelberg Engineering) (FIGS. 1 and 2: The OCT images of the retinae of the 8-month-old mice, FIG. 3: The evaluation of the optic nerve cupping in the 7 to 10-month-old mice). The mice in the control group were administered orally with the physiological saline. The eyeballs were enucleated at 10 months of age, and retinae were observed after hematoxylin-eosin (HE) staining (FIG. 4: The micrographs of retinae of the […] mice after HE staining). The thickness of the inner retinal layers and the nerve fiber layers was determined from the OCT images (FIG. 5: The thickness of the nerve fiber layers of the 7-month-old mice; FIG. 6: The thickness of the inner retinal layers of the 8-month-old mice; FIG. 7: The time course of the thickness of the inner retinal layers). The thickness of the inner retinal layer is a sum of the thickness of the nerve fiber and ganglion neuron layer and the inner plexiform layer.
Besides, the intraocular pressure was measured with TonoLab (M. E. Technica) tonometer under general anesthesia monthly from 2 months of age. The mean intraocular pressure at 4, 5, 6, 7 and 8 months of age was 13.6, 14.0, 11.3, 16.3 and 12.8 mmHg in the control group administered with the physiological saline, 13.0, 15.6, 12.0, 12.3 and 14.4 mmHg in the group administered with Compound 32, 14.6, 16.0, 12.8, 13.0 and 14.4 mmHg in the group administered with Compound 53.

The test system of another assay is rd10 mice. Kind of assay: rd10 mice, model of retinitis pigmentosa: OCT, electroretinogram, HE-stained retinae. Type of assay: in vivo, mouse. The settings on record: 33-day-old rd10 mice, 50 mg/kg/day intraperitoneally. The procedure: As a model of retinitis pigmentosa, the rd10 mice (B6.CXB1-Pde6b^rd10/J (purchased from Jackson Laboratory (Bar Harbor, Me.), Chang B. et al; Vision Res (2007)) were employed. In the mouse model, the rod photoreceptors are completely disappeared within 2 months after birth. The mice were administered intraperitoneally with 50 mg/kg/day of the compound of Synthetic Example 32 or 53 (Compound 32 or 53, respectively) daily from 7 days of age. The tomographs of the retinae were obtained in the 21, 25, 29 and 33-day-old mice with the optical coherence tomography (OCT) (FIGS. 15 and 17: The OCT images of the mice administered with Compound 32 at 25 and 29 days of age; FIGS. 19 and 21: The OCT images of the mice administered with Compound 53 at 25 and 29 days of age). The 21-, 25-, 29- and 33-day-old mice were subjected to dark adaptation and given 3.0 cd/s/m^2 of photic stimulations via a LED-type corneal-contact electrode (Mayo) by LS-W (Mayo). The electroretinogram (ERG) was recorded and analyzed with PowerLab 2/25 (AD Instruments, New South Wales, Australia) to measure the b-wave amplitudes (N=27-37 eyes) (FIGS. 16, 18, 24: The ERG of the 25-, 29- and 33-day-old mice administered with Compound 32; FIGS. 20, 22, 26: The ERG of the 25-, 29- and 33-day-old mice administered with Compound 53). The mice in the control group were administered orally with the physiological saline. […]

Where a name gives a salt, the structure may show the parent alone.

Chain of Mouse VCP (Q01853 whole entry): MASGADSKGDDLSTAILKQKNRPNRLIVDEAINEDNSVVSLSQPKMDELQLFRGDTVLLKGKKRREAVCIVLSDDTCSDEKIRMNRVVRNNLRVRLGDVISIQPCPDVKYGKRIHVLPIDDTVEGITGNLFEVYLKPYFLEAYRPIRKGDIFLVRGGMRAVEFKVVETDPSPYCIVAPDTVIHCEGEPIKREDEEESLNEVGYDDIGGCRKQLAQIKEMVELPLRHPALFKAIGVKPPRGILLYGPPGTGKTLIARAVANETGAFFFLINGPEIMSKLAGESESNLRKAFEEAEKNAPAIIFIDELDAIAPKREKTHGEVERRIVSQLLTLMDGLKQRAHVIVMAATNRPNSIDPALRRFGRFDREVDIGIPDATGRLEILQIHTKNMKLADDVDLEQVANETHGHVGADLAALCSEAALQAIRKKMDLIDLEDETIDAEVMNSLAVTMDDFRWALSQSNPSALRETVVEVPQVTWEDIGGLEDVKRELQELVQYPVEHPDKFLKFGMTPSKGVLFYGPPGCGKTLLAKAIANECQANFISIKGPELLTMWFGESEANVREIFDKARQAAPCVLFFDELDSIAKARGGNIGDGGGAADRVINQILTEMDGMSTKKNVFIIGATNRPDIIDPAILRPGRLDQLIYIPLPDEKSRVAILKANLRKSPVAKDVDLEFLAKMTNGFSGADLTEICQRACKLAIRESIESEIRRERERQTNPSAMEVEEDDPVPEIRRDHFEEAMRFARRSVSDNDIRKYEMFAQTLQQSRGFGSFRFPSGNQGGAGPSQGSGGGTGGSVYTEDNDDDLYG

`Nc1c(/N=N/c2ccc(-c3ccccc3OCCCC(=O)O)nc2)cc(S(=O)(=O)O)c2ccccc12` [Example 43, 4-{2-[5-(1-amino-4-sulfonaphthalene-2-ylazo)pyridine-2-yl]phenoxy}butyric acid disodium salt] registered an IC50 against Mouse VCP of 378 nM.
Consider `CCCCOc1c(C=O)cc(C)cc1-c1ccc(/N=N/c2cc(S(=O)(=O)[O-])c3ccccc3c2N)cn1.[Na+]` [Example 53, 4-amino-3-[6-(3-formyl-2-butoxy-5-methylphenyl)pyridine-3-ylazo]naphthalene-1-sulfonic acid sodium salt], for which the mean intraocular pressure with DBA/2J mice (4 months of age) was determined as 14.6 mmHg; in the assay with DBA/2J mice (5 months of age) it was 16.0 mmHg; in the assay with DBA/2J mice (6 months of age) it was 12.8 mmHg; in the assay on DBA/2J mice (7 months of age) it was 13.0 mmHg; in the assay with DBA/2J mice (8 months of age), 14.4 mmHg. Moreover, the “layers of the photoreceptor cells in the retinal section” value with rd10 mice is reported as 4 to 5 layers.
Turning to `Cc1cc(F)ccc1-c1ccc(/N=N/c2cc(S(=O)(=O)[O-])c3ccccc3c2N)cn1.[Na+]` [Example 32, 4-amino-3-[6-(4-fluoro-2-methylphenyl)pyridine-3-ylazo]naphthalene-1-sulfonic acid sodium salt], the mean intraocular pressure was 13.0 mmHg in the assay with DBA/2J mice (4 months of age); 15.6 mmHg in the assay with DBA/2J mice (5 months of age); 12.0 mmHg in the assay on DBA/2J mice (6 months of age); 12.3 mmHg in the assay with DBA/2J mice (7 months of age); 14.4 mmHg with DBA/2J mice (8 months of age). Besides, the “layers of the photoreceptor cells in the retinal section” value with rd10 mice lay within 4 to 5 layers.
